Experiments:
UACC-257 = assay: NCI-60 SRB screen; type: cell-based, human; conditions: Homo sapiens; single dose 10^−5 M; UACC-257, Melanoma; read-out: Growth inhibition (%)
SK-OV-3 = assay: NCI-60 SRB screen; type: cell-based, human; conditions: Homo sapiens; single dose 10^−5 M; SK-OV-3, Ovarian cancer; read-out: Growth inhibition (%)
SF-268 = assay: NCI-60 SRB screen; type: cell-based, human; conditions: Homo sapiens; single dose 10^−5 M; SF-268, CNS cancer; read-out: Growth inhibition (%)
EKVX = assay: NCI-60 SRB screen; type: cell-based, human; conditions: Homo sapiens, single dose 10^−5 M, Non-small cell lung carcinoma, read-out: Growth inhibition (%)
SK-MEL-5 = assay: NCI-60 SRB screen; type: cell-based, human; conditions: Homo sapiens; single dose 10^−5 M; SK-MEL-5, Melanoma; read-out: Growth inhibition (%)
SR = assay: NCI-60 SRB screen; type: cell-based; conditions: Homo sapiens, single dose 10^−5 M, Leukaemia, read-out: Growth inhibition (%)
NCI-H226 = assay: NCI-60 SRB screen; type: cell-based, human; conditions: Homo sapiens; single dose 10^−5 M; NCI-H226, Non-small cell lung carcinoma; read-out: Growth inhibition (%)
MOLT-4 = assay: NCI-60 SRB screen; type: cell-based; conditions: Homo sapiens; single dose 10^−5 M; MOLT-4, Leukaemia; read-out: Growth inhibition (%)
HOP-62 = assay: NCI-60 SRB screen; type: cell-based, human; conditions: Homo sapiens; single dose 10^−5 M; HOP-62, Non-small cell lung carcinoma; read-out: Growth inhibition (%)
CAKI-1 = assay: NCI-60 SRB screen; type: cell-based, human; conditions: Homo sapiens; single dose 10^−5 M; CAKI-1, Renal cancer; read-out: Growth inhibition (%)
ACHN = assay: NCI-60 SRB screen; type: cell-based; conditions: Homo sapiens, single dose 10^−5 M, Renal cancer, read-out: Growth inhibition (%)
K-562 = assay: NCI-60 SRB screen; type: cell-based, human; conditions: Homo sapiens, K562; single dose 10^−5 M; K-562, Leukaemia; read-out: Growth inhibition (%)
SF-295 = assay: NCI-60 SRB screen; type: cell-based, human; conditions: Homo sapiens; single dose 10^−5 M; SF-295, CNS cancer; read-out: Growth inhibition (%)
COLO 205 = assay: NCI-60 SRB screen; type: cell-based, human; conditions: Homo sapiens; single dose 10^−5 M; COLO 205, Colon cancer; read-out: Growth inhibition (%)
HT-29 = assay: NCI-60 SRB screen; type: cell-based; conditions: Homo sapiens; single dose 10^−5 M; HT-29, Colon cancer; read-out: Growth inhibition (%)
SK-MEL-28 = assay: NCI-60 SRB screen; type: cell-based; conditions: Homo sapiens; single dose 10^−5 M; SK-MEL-28, Melanoma; read-out: Growth inhibition (%)
LOX IMVI = assay: NCI-60 SRB screen; type: cell-based, human; conditions: Homo sapiens, single dose 10^−5 M, Melanoma, read-out: Growth inhibition (%)
NCI-H322M = assay: NCI-60 SRB screen; type: cell-based, human; conditions: Homo sapiens, single dose 10^−5 M, Non-small cell lung carcinoma, read-out: Growth inhibition (%)
HCC-2998 = assay: NCI-60 SRB screen; type: cell-based, human; conditions: Homo sapiens; single dose 10^−5 M; HCC-2998, Colon cancer; read-out: Growth inhibition (%)
TK-10 = assay: NCI-60 SRB screen; type: cell-based, human; conditions: Homo sapiens; single dose 10^−5 M; TK-10, Renal cancer; read-out: Growth inhibition (%)
HOP-92 = assay: NCI-60 SRB screen; type: cell-based, human; conditions: Homo sapiens; single dose 10^−5 M; HOP-92, Non-small cell lung carcinoma; read-out: Growth inhibition (%)
UACC-62 = assay: NCI-60 SRB screen; type: cell-based, human; conditions: Homo sapiens; single dose 10^−5 M; UACC-62, Melanoma; read-out: Growth inhibition (%)
UO-31 = assay: NCI-60 SRB screen; type: cell-based, human; conditions: Homo sapiens; single dose 10^−5 M; UO-31, Renal cancer; read-out: Growth inhibition (%)
M14 = assay: NCI-60 SRB screen; type: cell-based, human; conditions: Homo sapiens; single dose 10^−5 M; M14, Melanoma; read-out: Growth inhibition (%)
SK-MEL-2 = assay: NCI-60 SRB screen; type: cell-based, human; conditions: Homo sapiens; single dose 10^−5 M; SK-MEL-2, Melanoma; read-out: Growth inhibition (%)
IGROV1 = assay: NCI-60 SRB screen; type: cell-based, human; conditions: Homo sapiens, IGROV-1; single dose 10^−5 M; IGROV1, Ovarian cancer; read-out: Growth inhibition (%)
HCT-116 = assay: NCI-60 SRB screen; type: cell-based, human; conditions: Homo sapiens; single dose 10^−5 M; HCT-116, Colon cancer; read-out: Growth inhibition (%)
NCI-H522 = assay: NCI-60 SRB screen; type: cell-based, human; conditions: Homo sapiens; single dose 10^−5 M; NCI-H522, Non-small cell lung carcinoma; read-out: Growth inhibition (%)
NCI-H460 = assay: NCI-60 SRB screen; type: cell-based, human; conditions: Homo sapiens; single dose 10^−5 M; NCI-H460, Non-small cell lung carcinoma; read-out: Growth inhibition (%)
OVCAR-4 = assay: NCI-60 SRB screen; type: cell-based, human; conditions: Homo sapiens; single dose 10^−5 M; OVCAR-4, Ovarian cancer; read-out: Growth inhibition (%)
OVCAR-8 = assay: NCI-60 SRB screen; type: cell-based, human; conditions: Homo sapiens; single dose 10^−5 M; OVCAR-8, Ovarian cancer; read-out: Growth inhibition (%)
KM12 = assay: NCI-60 SRB screen; type: cell-based, human; conditions: Homo sapiens; single dose 10^−5 M; KM12, Colon cancer; read-out: Growth inhibition (%)
NCI/ADR-RES = assay: NCI-60 SRB screen; type: cell-based, human; conditions: Homo sapiens, single dose 10^−5 M, Ovarian cancer, read-out: Growth inhibition (%)
[1] = tested on: panel of 60 cancer cell lines; assay: NCI-60 SRB screen, mean or range over the panel; type: cell-based, human; conditions: Homo sapiens; mean over the cell lines; single dose 10^−5 M; read-out: Mean growth inhibition (%)
MDA-MB-435 = assay: NCI-60 SRB screen; type: cell-based; conditions: Homo sapiens, MDA-MB-435, read-out: Growth inhibition (%)
HCT-15 = assay: NCI-60 SRB screen; type: cell-based, human; conditions: Homo sapiens; single dose 10^−5 M; HCT-15, Colon cancer; read-out: Growth inhibition (%)
OVCAR-3 = assay: NCI-60 SRB screen; type: cell-based, human; conditions: Homo sapiens; single dose 10^−5 M; OVCAR-3, Ovarian cancer; read-out: Growth inhibition (%)
HL-60(TB) = assay: NCI-60 SRB screen; type: cell-based, human; conditions: Homo sapiens; single dose 10^−5 M; HL-60(TB), Leukaemia; read-out: Growth inhibition (%)
SN12C = assay: NCI-60 SRB screen; type: cell-based, human; conditions: Homo sapiens, SN12C; single dose 10^−5 M; SN 12 C, Renal cancer; read-out: Growth inhibition (%)
NCI-H23 = assay: NCI-60 SRB screen; type: cell-based, human; conditions: Homo sapiens; single dose 10^−5 M; NCI-H23, Non-small cell lung carcinoma; read-out: Growth inhibition (%)
SW-620 = assay: NCI-60 SRB screen; type: cell-based; conditions: Homo sapiens; single dose 10^−5 M; SW-620, Colon cancer; read-out: Growth inhibition (%)
A549/ATCC = assay: NCI-60 SRB screen; type: cell-based, human; conditions: Homo sapiens, single dose 10^−5 M, Non-small cell lung carcinoma, read-out: Growth inhibition (%)
RXF 393 = assay: NCI-60 SRB screen; type: cell-based, human; conditions: Homo sapiens; single dose 10^−5 M; RXF 393, Renal cancer; read-out: Growth inhibition (%)
786-0 = assay: NCI-60 SRB screen; type: cell-based; conditions: Homo sapiens; single dose 10^−5 M; 786-0, Renal cancer; read-out: Growth inhibition (%)

Q: N#CC1=C(Cl)NC(c2cccc([N+](=O)[O-])c2)c2sc3c(F)cccc3c21 (centres unmarked) [Compound 7b, 3-Chloro-4-cyano-8-fluoro-1-(3-nitrophenyl)-1,2-dihydro[1]benzothieno [2,3-c]pyridine] was tested. Which inhibition at 10 µM (UACC-257) did it give?
A: The inhibition at 10 µM was -9.77%.

Q: What about the inhibition at 10 µM (SK-OV-3) of the same compound?
A: Its inhibition at 10 µM is 2.24%.

Q: And the inhibition at 10 µM (SF-268)?
A: Its inhibition at 10 µM is 6.82%.

Q: What about the inhibition at 10 µM (EKVX) of the same compound?
A: Its inhibition at 10 µM is -1.36%.

Q: What about the inhibition at 10 µM (SK-MEL-5) of the same compound?
A: The inhibition at 10 µM was -20.1%.

Q: And the inhibition at 10 µM (SR)?
A: Its inhibition at 10 µM is 15.9%.

Q: What about the inhibition at 10 µM (NCI-H226) of the same compound?
A: The inhibition at 10 µM was 9.35%.

Q: What about the inhibition at 10 µM (MOLT-4) of the same compound?
A: Its inhibition at 10 µM is 7.93%.

Q: What about the inhibition at 10 µM (HOP-62) of the same compound?
A: Its inhibition at 10 µM is 9.67%.

Q: And the inhibition at 10 µM (CAKI-1)?
A: Its inhibition at 10 µM is 19.8%.

Q: What about the inhibition at 10 µM (ACHN) of the same compound?
A: Its inhibition at 10 µM is 4.44%.

Q: What about the inhibition at 10 µM (K-562) of the same compound?
A: The inhibition at 10 µM was 8.8%.

Q: What about the inhibition at 10 µM (SF-295) of the same compound?
A: Its inhibition at 10 µM is -4.69%.

Q: And the inhibition at 10 µM (COLO 205)?
A: Its inhibition at 10 µM is -14.6%.

Q: What about the inhibition at 10 µM (HT-29) of the same compound?
A: Its inhibition at 10 µM is -3.29%.

Q: What about the inhibition at 10 µM (SK-MEL-28) of the same compound?
A: Its inhibition at 10 µM is -11.2%.

Q: And the inhibition at 10 µM (LOX IMVI)?
A: The inhibition at 10 µM was 1.46%.

Q: And the inhibition at 10 µM (NCI-H322M)?
A: Its inhibition at 10 µM is -3.17%.

Q: And the inhibition at 10 µM (HCC-2998)?
A: The inhibition at 10 µM was -18.2%.

Q: What about the inhibition at 10 µM (TK-10) of the same compound?
A: The inhibition at 10 µM was -53.8%.

Q: What about the inhibition at 10 µM (HOP-92) of the same compound?
A: The inhibition at 10 µM was 10.4%.

Q: And the inhibition at 10 µM (UACC-62)?
A: The inhibition at 10 µM was 8.84%.

Q: And the inhibition at 10 µM (UO-31)?
A: The inhibition at 10 µM was 32.5%.

Q: And the inhibition at 10 µM (M14)?
A: Its inhibition at 10 µM is -5.17%.

Q: And the inhibition at 10 µM (SK-MEL-2)?
A: The inhibition at 10 µM was -2.07%.

Q: What about the inhibition at 10 µM (IGROV1) of the same compound?
A: Its inhibition at 10 µM is 15.6%.

Q: And the inhibition at 10 µM (HCT-116)?
A: The inhibition at 10 µM was 11.7%.

Q: What about the inhibition at 10 µM (NCI-H522) of the same compound?
A: The inhibition at 10 µM was -1.38%.

Q: What about the inhibition at 10 µM (NCI-H460) of the same compound?
A: The inhibition at 10 µM was 2.14%.

Q: And the inhibition at 10 µM (OVCAR-4)?
A: The inhibition at 10 µM was -3.81%.

Q: And the inhibition at 10 µM (OVCAR-8)?
A: The inhibition at 10 µM was -4.49%.

Q: And the inhibition at 10 µM (KM12)?
A: The inhibition at 10 µM was -0.12%.

Q: What about the inhibition at 10 µM (NCI/ADR-RES) of the same compound?
A: The inhibition at 10 µM was 1.73%.

Q: What about the inhibition at 10 µM [1] of the same compound?
A: The inhibition at 10 µM was 2.14%.

Q: What about the inhibition at 10 µM (MDA-MB-435) of the same compound?
A: Its inhibition at 10 µM is -8.18%.

Q: What about the inhibition at 10 µM (HCT-15) of the same compound?
A: Its inhibition at 10 µM is -7.25%.

Q: What about the inhibition at 10 µM (OVCAR-3) of the same compound?
A: The inhibition at 10 µM was -1.67%.

Q: What about the inhibition at 10 µM (HL-60(TB)) of the same compound?
A: The inhibition at 10 µM was 1.47%.

Q: What about the inhibition at 10 µM (SN12C) of the same compound?
A: The inhibition at 10 µM was 4.43%.

Q: And the inhibition at 10 µM (NCI-H23)?
A: Its inhibition at 10 µM is 4.25%.

Q: And the inhibition at 10 µM (SW-620)?
A: The inhibition at 10 µM was 3.78%.

Q: And the inhibition at 10 µM (A549/ATCC)?
A: The inhibition at 10 µM was -10.1%.

Q: And the inhibition at 10 µM (RXF 393)?
A: The inhibition at 10 µM was -15.8%.

Q: What about the inhibition at 10 µM (786-0) of the same compound?
A: The inhibition at 10 µM was -13.5%.

Reference: article PMC8330742, “New benzothieno[2,3-c]pyridines as non-steroidal CYP17 inhibitors: design, synthesis, anticancer screening, apoptosis induction, and in silico ADME profile studies” (Journal of Enzyme Inhibition and Medicinal Chemistry, 2021)
